Laboratory results published in patent US9499538B2, “Estrogen receptor modulators and uses thereof” (Seragon Pharmaceuticals, Inc., priority 2012, dated 2016).

Assays:
[1] = test system: MCF-7 cells; experiment: Breast Cancer Cell Viability Assays (MCF-7, CellTiter-Glo); type: cell-based; settings: 5 days' compound exposure; for IC50: Homo sapiens, MCF7, 120 h
In short: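 MCF-7 cells (320/well, RPMI with 10% FBS) exposed for 5 days to an eleven-point semilog series, 0.3–0.000003 μM final. Viability read by CellTiter-Glo luminescence, expressed as background-corrected percent of untreated cells.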

[2] = molecular target: T1, ER-α in MCF-7 cells (Homo sapiens, UniProt P03372); experiment: Breast Cancer Cell ER-α In Cell Western Assay (SP1); type: cell-based; settings: 4 or 24 hr post compound addition; for Emax: MCF7, SP1 antibody, read-out: ER-α In Cell Western Assay (SP1) Max Response; for DC50: SP1 antibody, read-out: ER-α In Cell Western Assay (SP1) IC50
T1 construct: endogenous in cells; host or cells: MCF-7
T1 sequence (P03372 1-595): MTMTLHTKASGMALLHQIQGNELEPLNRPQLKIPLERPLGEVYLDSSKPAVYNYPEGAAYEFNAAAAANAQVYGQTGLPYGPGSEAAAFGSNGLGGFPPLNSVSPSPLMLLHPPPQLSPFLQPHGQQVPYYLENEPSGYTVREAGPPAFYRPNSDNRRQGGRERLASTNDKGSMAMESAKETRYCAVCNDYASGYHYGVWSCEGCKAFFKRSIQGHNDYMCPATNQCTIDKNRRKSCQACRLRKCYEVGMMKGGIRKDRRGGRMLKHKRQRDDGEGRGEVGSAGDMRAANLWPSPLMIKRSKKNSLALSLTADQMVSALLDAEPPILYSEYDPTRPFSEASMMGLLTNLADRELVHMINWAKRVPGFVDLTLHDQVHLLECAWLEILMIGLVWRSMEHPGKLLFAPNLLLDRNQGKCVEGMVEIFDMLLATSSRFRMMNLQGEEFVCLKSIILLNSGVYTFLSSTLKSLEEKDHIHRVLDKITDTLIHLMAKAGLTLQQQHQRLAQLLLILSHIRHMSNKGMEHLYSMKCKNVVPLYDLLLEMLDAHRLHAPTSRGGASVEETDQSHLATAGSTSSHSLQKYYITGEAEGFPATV
In short: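 MCF-7 cells in charcoal-stripped FBS medium, treated with 11-point semilog dilutions (0.3–0.000003 μM final) for 4 or 24 h. Fixed cells immunostained with SP1 antibody (800 nm) and DRAQ5 DNA (700 nm); ER/DNA ratio expressed as % of untreated cells.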

Row | IC50 [1] [µM] | Emax [2] [%] | DC50 [2] [µM] | Compound | MCF7 Viability Assay Max Response [1]
1 | ≤ 0.1 | ≥ 40 | ≤ 0.1 | CCOc1cc(C)c(/C(=C(\c2ccc(/C=C/C(=O)O)cc2)c2ccc3[nH]nc(F)c3c2)C2CC2)cn1 [Example 117, (E)-3-(4-((E)-2-Cyclopropyl-2-(6-ethoxy-4-methylpyridin-3-yl)-1-(3-fluoro-1H-indazol-5-yl)vinyl)phenyl)acrylic acid] | ++ (++ = a single % value ≧ 40%)
2 | ≤ 0.1 | ≥ 40 | ≤ 0.1 | Cc1cc(C#N)ccc1/C(=C(\c1ccc(/C=C/C(=O)O)cc1)c1ccc2[nH]nc(F)c2c1)C1CC1 [Example 118, (E)-3-(4-((E)-2-(4-Cyano-2-methylphenyl)-2-cyclopropyl-1-(3-fluoro-1H-indazol-5-yl)vinyl)phenyl)acrylic acid] | ++ (++ = a single % value ≧ 40%)
3 | ≤ 0.1 | ≥ 40 | ≤ 0.1 | N#Cc1ccc(/C(=C(\c2ccc(/C=C/C(=O)O)cc2)c2ccc3[nH]nc(F)c3c2)C2CC2)c(Cl)c1 [Example 119, (E)-3-(4-((E)-2-(2-Chloro-4-cyanophenyl)-2-cyclopropyl-1-(3-fluoro-1H-indazol-5-yl)vinyl)phenyl)acrylic acid] | ++ (++ = a single % value ≧ 40%)
4 | ≤ 0.1 | ≥ 40 | ≤ 0.1 | N#Cc1cc(Cl)ccc1/C(=C(\c1ccc(/C=C/C(=O)O)cc1)c1ccc2[nH]nc(F)c2c1)C1CC1 [Example 120, (E)-3-(4-((E)-2-(4-Chloro-2-cyanophenyl)-2-cyclopropyl-1-(3-fluoro-1H-indazol-5-yl)vinyl)phenyl)acrylic acid] | ++ (++ = a single % value ≧ 40%)
5 | ≤ 0.1 | ≥ 40 | ≤ 0.1 | COc1ccc(/C(=C(\c2ccc(/C=C/C(=O)O)cc2)c2ccc3[nH]nc(F)c3c2)C2CC2)c(C#N)c1 [Example 121, (E)-3-(4-((E)-2-(2-Cyano-4-methoxyphenyl)-2-cyclopropyl-1-(3-fluoro-1H-indazol-5-yl)vinyl)phenyl)acrylic acid] | ++ (++ = a single % value ≧ 40%)
6 | ≤ 0.1 | ≥ 40 | ≤ 0.1 | CS(=O)(=O)c1cnc(Oc2ccc(/C(=C(\c3ccc(/C=C/C(=O)O)cc3)c3ccc4[nH]nc(F)c4c3)C3CCC3)cc2)cn1 [Example 122, (E)-3-(4-((E)-2-Cyclobutyl-1-(3-fluoro-1H-indazol-5-yl)-2-(4-((5-(methylsulfonyl)pyrazin-2-yl)oxy)phenyl)vinyl)phenyl)acrylic acid] | ++ (++ = a single % value ≧ 40%)
7 | ≤ 0.1 | ≥ 40 | ≤ 0.1 | O=C(O)/C=C/c1ccc(/C(=C(\c2ccccc2F)C2CCC2)c2ccc3[nH]nc(F)c3c2)cc1 [Example 123, (E)-3-(4-((E)-2-Cyclobutyl-1-(3-fluoro-1H-indazol-5-yl)-2-(2-fluorophenyl)vinyl)phenyl)acrylic acid] | ++ (++ = a single % value ≧ 40%)
8 | ≤ 0.1 | ≥ 40 | ≤ 0.1 | O=C(O)/C=C/c1ccc(/C(=C(\c2ccccc2Cl)C2CCC2)c2ccc3[nH]nc(F)c3c2)cc1 [Example 124, (E)-3-(4-((E)-2-(2-Chlorophenyl)-2-cyclobutyl-1-(3-fluoro-1H-indazol-5-yl)vinyl)phenyl)acrylic acid] | ++ (++ = a single % value ≧ 40%)
9 | ≤ 0.1 | ≥ 40 | ≤ 0.1 | Cc1ccccc1/C(=C(\c1ccc(/C=C/C(=O)O)cc1)c1ccc2[nH]nc(F)c2c1)C1CCC1 [Example 125, (E)-3-(4-((E)-2-Cyclobutyl-1-(3-fluoro-1H-indazol-5-yl)-2-(o-tolyl)vinyl)phenyl)acrylic acid] | ++ (++ = a single % value ≧ 40%)
10 | ≤ 0.1 | ≥ 40 | ≤ 0.1 | Cc1cscc1/C(=C(\c1ccc(/C=C/C(=O)O)cc1)c1cccc2[nH]ncc12)C1CCC1 [Example 126, (E)-3-(4-((E)-2-Cyclobutyl-1-(1H-indazol-4-yl)-2-(4-methylthiophen-3-yl)vinyl)phenyl)acrylic acid] | ++ (++ = a single % value ≧ 40%)
11 | ≤ 0.1 | ≥ 40 | ≤ 0.1 | COc1cc(C)c(/C(=C(\c2ccc(/C=C/C(=O)O)cc2)c2cccc3[nH]ncc23)C2CCC2)cn1 [Example 127, (E)-3-(4-((E)-2-Cyclobutyl-1-(1H-indazol-4-yl)-2-(6-methoxy-4-methylpyridin-3-yl)vinyl)phenyl)acrylic acid] | ++ (++ = a single % value ≧ 40%)
12 | > 0.1 | ≥ 40 | ≤ 0.1 | O=C(O)/C=C/c1ccc(/C(=C(\c2cccnc2)C2CCC2)c2ccc3[nH]nc(F)c3c2)cc1 [Example 128, (E)-3-(4-((E)-2-Cyclobutyl-1-(3-fluoro-1H-indazol-5-yl)-2-(pyridin-3-yl)vinyl)phenyl)acrylic acid] | + (+ = a single % value < 40%)
13 | ≤ 0.1 | ≥ 40 | ≤ 0.1 | Cc1cncc(/C(=C(\c2ccc(/C=C/C(=O)O)cc2)c2ccc3[nH]nc(F)c3c2)C2CCC2)c1 [Example 129, (E)-3-(4-((E)-2-Cyclobutyl-1-(3-fluoro-1H-indazol-5-yl)-2-(5-methylpyridin-3-yl)vinyl)phenyl)acrylic acid] | ++ (++ = a single % value ≧ 40%)
14 | ≤ 0.1 | ≥ 40 | ≤ 0.1 | O=C(O)/C=C/c1ccc(/C(=C(\c2cncc(Cl)c2)C2CCC2)c2ccc3[nH]nc(F)c3c2)cc1 [Example 130, (E)-3-(4-((E)-2-(5-Chloropyridin-3-yl)-2-cyclobutyl-1-(3-fluoro-1H-indazol-5-yl)vinyl)phenyl)acrylic acid] | ++ (++ = a single % value ≧ 40%)
15 | ≤ 0.1 | ≥ 40 | ≤ 0.1 | O=C(O)/C=C/c1ccc(/C(=C(\c2cncc(F)c2)C2CCC2)c2ccc3[nH]nc(F)c3c2)cc1 [Example 131, (E)-3-(4-((E)-2-Cyclobutyl-1-(3-fluoro-1H-indazol-5-yl)-2-(5-fluoropyridin-3-yl)vinyl)phenyl)acrylic acid] | ++ (++ = a single % value ≧ 40%)
16 | ≤ 0.1 | ≥ 40 | ≤ 0.1 | COc1cncc(/C(=C(\c2ccc(/C=C/C(=O)O)cc2)c2ccc3[nH]nc(F)c3c2)C2CCC2)c1 [Example 132, (E)-3-(4-((E)-2-Cyclobutyl-1-(3-fluoro-1H-indazol-5-yl)-2-(5-methoxypyridin-3-yl)vinyl)phenyl)acrylic acid] | ++ (++ = a single % value ≧ 40%)
17 | ≤ 0.1 | ≥ 40 | ≤ 0.1 | COc1cc(C)ncc1/C(=C(\c1ccc(/C=C/C(=O)O)cc1)c1ccc2[nH]nc(F)c2c1)C1CCC1 [Example 133, (E)-3-(4-((E)-2-Cyclobutyl-1-(3-fluoro-1H-indazol-5-yl)-2-(4-methoxy-6-methylpyridin-3-yl)vinyl)phenyl)acrylic acid] | ++ (++ = a single % value ≧ 40%)
